Values quoted from earlier work, collected in patent US6534473B1, “Process for the manufacture of tablet detergent compositions” (Unilever Patent Holdings BV, priority 1998, dated 2003).
Like-named read-outs stand apart in the source and are kept apart here.

[1] = at 20° C., other common materials, by contrast

Row | solubility in water (at 20° C.) | Water Solubility (grams of solid to form a saturated solution in 100 grams of water at 20° C., highly water-soluble materials) [g/100 g] | SMILES | Water Solubility [1] [g/100 g]
1 | exceeding 100 gms per 100 ml water | >100 | NC(N)=O [Urea] | 
2 |  |  | O=P(O)(O)OP(=O)(O)OP(=O)(O)O [Sodium tripolyphosphate anhydrous] | 15
3 |  |  | O=BO[O-].[Na+] [Sodium perborate anhydrous] | 3.7
